Measured values taken from publication PMC3348135, “Identification of New Agonists and Antagonists of the Insect Odorant Receptor Co-Receptor Subunit” (PLoS ONE, 2012).
Read-outs that look alike come from different tables or passages of the source.

Tests used:
[1] = target: T1, Dmel\Orco + Dmel\Or35a (Drosophila melanogaster, UniProt Q9VNB5); experiment: Agonist activation of Dmel\Orco + Dmel\Or35a in Xenopus oocytes, two-electrode voltage clamp; format: cell-based; details: read-out: Response amplitude as percentage of response to 100 µM OLC3, Dmel\Orco + Dmel\Or35a
T1 construct: expressed in transfected cells; host or cells: Xenopus laevis oocytes (cRNA injection, pGEMHE)
T1 sequence (Q9VNB5 1-486): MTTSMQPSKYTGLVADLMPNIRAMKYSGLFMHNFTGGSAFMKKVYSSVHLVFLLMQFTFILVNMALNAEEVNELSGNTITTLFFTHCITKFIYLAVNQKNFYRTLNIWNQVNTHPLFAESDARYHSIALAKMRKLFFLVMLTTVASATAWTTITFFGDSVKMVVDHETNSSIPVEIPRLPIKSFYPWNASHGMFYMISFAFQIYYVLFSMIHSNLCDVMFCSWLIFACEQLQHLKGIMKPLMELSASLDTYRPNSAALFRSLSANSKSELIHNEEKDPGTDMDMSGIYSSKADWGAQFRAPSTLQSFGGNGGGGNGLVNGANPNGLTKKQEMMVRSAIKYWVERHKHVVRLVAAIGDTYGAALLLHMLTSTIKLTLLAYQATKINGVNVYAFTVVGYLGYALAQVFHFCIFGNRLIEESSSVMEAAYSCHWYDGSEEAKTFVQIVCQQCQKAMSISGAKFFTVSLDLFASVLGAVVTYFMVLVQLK
T1 sequence (Q9V3Q2 1-409 partner): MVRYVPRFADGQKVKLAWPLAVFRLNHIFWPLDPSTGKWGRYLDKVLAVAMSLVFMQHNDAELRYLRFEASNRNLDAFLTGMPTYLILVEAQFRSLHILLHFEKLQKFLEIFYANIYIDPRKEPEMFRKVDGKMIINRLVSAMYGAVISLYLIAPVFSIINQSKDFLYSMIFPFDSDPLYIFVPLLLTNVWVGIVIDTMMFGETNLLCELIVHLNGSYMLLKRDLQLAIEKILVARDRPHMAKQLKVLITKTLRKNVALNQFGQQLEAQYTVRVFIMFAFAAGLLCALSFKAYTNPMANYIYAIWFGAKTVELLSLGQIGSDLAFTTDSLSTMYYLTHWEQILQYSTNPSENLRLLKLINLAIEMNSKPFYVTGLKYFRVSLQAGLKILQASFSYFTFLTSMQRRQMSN
Experimental: (§1) Oocytes were surgically removed from mature Xenopus laevis frogs. Follicle cells were removed by treatment with Collagenase B (Boehringer Mannhem) for 2 hours at room temperature. Capped cRNA encoding each DmOR subunit was generated using mMessage mMachine kits (Ambion). For heteromeric ORs, 25 ng of cRNA encoding each OR subunit was injected into Stage V-VI Xenopus oocytes. For expression of Orco alone, 50 ng of cRNA was injected. Oocytes were incubated at 18°C in Barth’s saline (in mM: 88 NaCl, 1 KCl, 2.4 NaHCO3, 0.3 CaNO3, 0.41 CaCl2, 0.82 MgSO4, 15 HEPES, pH 7.6, and 150 µg/ml ceftazidime) for 2–5 days prior to electrophysiological recording.
(§2) Odorant and Orco ligand induced currents were recorded under two-electrode voltage clamp in Xenopus laevis oocytes expressing ORs, using an automated parallel electrophysiology system (OpusExpress 6000A; Molecular Devices). Oocytes were perfused with ND96 (in mM: 96 NaCl, 2 KCl, 1 CaCl2, 1 MgCl2, 5 HEPES, pH 7.5). Odorant stock solutions (0.5 or 1 M) and Orco ligand stock solutions (100 mM) were prepared in DMSO and diluted in ND96. Unless otherwise noted, applications were for 60 sec at a flow rate of 1.0 ml/min, with extensive washing in ND96 (9 or 20 min at 4.6 ml/min) between applications. Micropipettes were filled with 3 M KCl and had resistances of 0.2−2.0 MΩ. The holding potential was −70 mV. Current responses, filtered (4-pole, Bessel, low pass) at 20 Hz (−3 db) and sampled at 100 Hz, were captured and stored using OpusXpress 1.1 software (Molecular Devices).
(§3) Initial analysis of electrophysiological data was done using Clampfit 9.1 software (Molecular Devices). Curve fitting and statistical analyses were done using Prism 5 (Graphpad). Concentration-response data were fit to the equation: I = Imax/(1+(EC50/X)^n) where I represents the current response at a given concentration of odorant, X; Imax is the maximal response; EC50 is the concentration of agonist yielding a half maximal response; n is the apparent Hill coefficient. Concentration-inhibition data were fit to the equation: I = Imax/(1+(X/IC50)^n) where I represents the current response at a given concentration of inhibitor, X; Imax is the maximal response in the absence of inhibitor; IC50 is the concentration of inhibitor present that still allows a half maximal response from odorant; n is the apparent Hill coefficient. Statistical significance was assessed using a two-tailed unpaired t test, an F test, or a one-way analysis of variance followed by the Bonferroni’s post-test, as appropriate.

[2] = target: T2, Dmel\Orco (Drosophila melanogaster, UniProt Q9VNB5); experiment: Agonist activation of homomeric Dmel\Orco in Xenopus oocytes, two-electrode voltage clamp; format: cell-based; details: read-out: Response amplitude as percentage of response to 100 µM OLC3, Dmel\Orco
T2 construct: expressed in transfected cells; host or cells: Xenopus laevis oocytes (cRNA injection, pGEMHE)
T2 sequence (Q9VNB5 1-486): T1 sequence (Q9VNB5 1-486)
Experimental: as §1, §2, §3

[3] = target: T3, Cqui\Orco + Cqui\Or10 (Culex quinquefasciatus, UniProt D5LMR7+Q309I4); experiment: Inhibition of odorant (3-methylindole) activation of Cqui\Orco + Cqui\Or10 in Xenopus oocytes; format: cell-based; details: for Inhibition of activation of Cqui\Orco+Cqui\Or10 by 3-methylindole: 100 nM 3-methylindole, OLC compound 100 µM
T3 sequence (D5LMR7 entry or part of it): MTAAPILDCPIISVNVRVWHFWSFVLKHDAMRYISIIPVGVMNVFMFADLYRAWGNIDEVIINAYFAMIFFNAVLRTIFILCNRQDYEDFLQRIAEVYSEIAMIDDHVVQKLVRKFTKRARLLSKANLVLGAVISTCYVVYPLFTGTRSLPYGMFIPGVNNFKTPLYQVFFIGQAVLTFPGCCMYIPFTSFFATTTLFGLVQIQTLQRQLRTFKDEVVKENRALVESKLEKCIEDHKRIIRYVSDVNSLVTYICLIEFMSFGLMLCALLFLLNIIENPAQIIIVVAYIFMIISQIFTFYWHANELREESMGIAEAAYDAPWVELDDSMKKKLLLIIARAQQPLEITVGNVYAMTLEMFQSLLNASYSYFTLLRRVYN
T3 sequence (Q309I4 entry or part of it): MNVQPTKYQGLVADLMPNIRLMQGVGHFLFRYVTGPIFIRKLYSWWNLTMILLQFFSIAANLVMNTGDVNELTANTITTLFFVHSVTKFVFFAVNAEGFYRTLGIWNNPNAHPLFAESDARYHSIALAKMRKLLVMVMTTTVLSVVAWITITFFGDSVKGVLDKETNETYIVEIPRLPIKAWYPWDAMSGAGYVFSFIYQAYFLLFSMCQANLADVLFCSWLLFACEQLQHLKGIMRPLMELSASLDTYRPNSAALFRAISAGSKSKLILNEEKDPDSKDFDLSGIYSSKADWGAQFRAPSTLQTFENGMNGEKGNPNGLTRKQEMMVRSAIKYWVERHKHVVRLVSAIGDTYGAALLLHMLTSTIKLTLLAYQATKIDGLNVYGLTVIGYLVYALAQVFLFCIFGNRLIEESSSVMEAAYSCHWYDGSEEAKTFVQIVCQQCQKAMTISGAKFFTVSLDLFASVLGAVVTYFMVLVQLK

[4] = target: T1, Dmel\Orco + Dmel\Or35a; experiment: Inhibition of odorant (hexanol) activation of Dmel\Orco + Dmel\Or35a in Xenopus oocytes; format: cell-based; details: 3 µM hexanol; OLC2 100 µM, OLC15 50 µM, OLC20 200 µM
Experimental: as §1, §2
In inhibition assays, oocytes were exposed to 60 sec applications of OLC12 with 9 min washes between applications (Fig. 3 and 4) or 60 sec applications of odorant with 20 min washes between applications (Fig. 5). […]
Initial analysis of electrophysiological data was done using Clampfit 9.1 software (Molecular Devices). […] Statistical significance was assessed using a two-tailed unpaired t test, an F test, or a one-way analysis of variance followed by the Bonferroni’s post-test, as appropriate.

[5] = test system: Cqui\Orco; experiment: Agonist activation of homomeric Cqui\Orco in Xenopus oocytes, two-electrode voltage clamp; format: cell-based, Culex quinquefasciatus; details: 100 µM compound; mean ± SEM, n=3-8
[6] = target: T3, Cqui\Orco + Cqui\Or10; experiment: Activation of Cqui\Orco + Cqui\Or10 in Xenopus oocytes, two-electrode voltage clamp; format: cell-based; details: 100 µM compound; mean ± SEM, n=3-8; read-out: Response amplitude as percentage of response to 100 µM OLC3, Cqui\Orco + Cqui\Or10
Experimental: as §1, §2, §3

| Structure (SMILES) | Emax at 100 µM [1] | Emax at 100 µM [2] | Inhibition of activation of Cqui\Orco+Cqui\Or10 by 3-methylindole [3] | Inhibition of the hexanol response of Dmel\Orco+Dmel\Or35a [4] | Response amplitude as percentage of response to 100 µM OLC3, Cqui\Orco [5] | Emax at 100 µM [6] | IC50 ([3]; activated by 10 nM 3-methylindole (EC10), read-out: IC50 for inhibition of responses to 10 nM 3-MI) | IC50 ([3]; activated by 100 nM 3-methylindole (EC53), read-out: IC50 for inhibition of responses to 100 nM 3-MI) |
| --- | --- | --- | --- | --- | --- | --- | --- | --- |
| CCc1ccc(NC(=O)CSc2nnc(-c3ccccn3)n2CC)cc1 [OLC2] | 2 ± 1% | 0% | inhibited | did not inhibit | 0% | 0% | – | – |
| CCCCc1ccc(NC(=O)CSc2nnc(-c3ccccn3)n2CC)cc1 [OLC15] | 0% | 0% | inhibited | substantial inhibition | 0% | 0% | 1.5 ± 0.2 µM | 2 ± 0.3 µM |
